Measured values as given in US8192750B2, “Pharmaceutical composition for the treatment of otomycosis” (priority 2006, dated 2012).
“Also recorded” adds a separate entry of the source.

Experiments:
[1] = solubility of griseofulvin in different solvents; assay type: physicochemical; details: mixtures with carriers
[2] = cited from earlier work

COC1=CC(=O)C[C@@H](C)[C@]12Oc1c(Cl)c(OC)cc(OC)c1C2=O [griseofulvin, Griseofulvin]
Solubility of griseofulvin in different solvents [1]: higher in admixture with high molecular weight substances, such as herbal agents (e.g. tea tree oil), but not in admixtures with saccharides or alcohol; also recorded: higher in mixtures with high molecular weight carriers such as herbal agents, but not with saccharides or alcohol | solubility in water [2]: insoluble in water
